What was measured:
[1] = biological target: TYK2 (Mus musculus (Mouse), UniProt Q9R117); assay: Luciferase assay in L929 ISRE cells stimulated with IFN-α; type: cell-based; settings: IFN-α 100 ng/mL; for inhibition at 0.01 µM: 10 nM, read-out: Inhibitory activity % (10 nM); for inhibition at 0.1 µM: 100 nM, read-out: Inhibitory activity % (100 nM); for inhibition at 1 µM: 1000 nM, read-out: Inhibitory activity % (1000 nM); for inhibition at 0.05 µM: 50 nM, read-out: Inhibitory activity % (50 nM); for inhibition at 0.2 µM: 200 nM, read-out: Inhibitory activity % (200 nM)
TYK2, sequence (Q9R117 whole entry): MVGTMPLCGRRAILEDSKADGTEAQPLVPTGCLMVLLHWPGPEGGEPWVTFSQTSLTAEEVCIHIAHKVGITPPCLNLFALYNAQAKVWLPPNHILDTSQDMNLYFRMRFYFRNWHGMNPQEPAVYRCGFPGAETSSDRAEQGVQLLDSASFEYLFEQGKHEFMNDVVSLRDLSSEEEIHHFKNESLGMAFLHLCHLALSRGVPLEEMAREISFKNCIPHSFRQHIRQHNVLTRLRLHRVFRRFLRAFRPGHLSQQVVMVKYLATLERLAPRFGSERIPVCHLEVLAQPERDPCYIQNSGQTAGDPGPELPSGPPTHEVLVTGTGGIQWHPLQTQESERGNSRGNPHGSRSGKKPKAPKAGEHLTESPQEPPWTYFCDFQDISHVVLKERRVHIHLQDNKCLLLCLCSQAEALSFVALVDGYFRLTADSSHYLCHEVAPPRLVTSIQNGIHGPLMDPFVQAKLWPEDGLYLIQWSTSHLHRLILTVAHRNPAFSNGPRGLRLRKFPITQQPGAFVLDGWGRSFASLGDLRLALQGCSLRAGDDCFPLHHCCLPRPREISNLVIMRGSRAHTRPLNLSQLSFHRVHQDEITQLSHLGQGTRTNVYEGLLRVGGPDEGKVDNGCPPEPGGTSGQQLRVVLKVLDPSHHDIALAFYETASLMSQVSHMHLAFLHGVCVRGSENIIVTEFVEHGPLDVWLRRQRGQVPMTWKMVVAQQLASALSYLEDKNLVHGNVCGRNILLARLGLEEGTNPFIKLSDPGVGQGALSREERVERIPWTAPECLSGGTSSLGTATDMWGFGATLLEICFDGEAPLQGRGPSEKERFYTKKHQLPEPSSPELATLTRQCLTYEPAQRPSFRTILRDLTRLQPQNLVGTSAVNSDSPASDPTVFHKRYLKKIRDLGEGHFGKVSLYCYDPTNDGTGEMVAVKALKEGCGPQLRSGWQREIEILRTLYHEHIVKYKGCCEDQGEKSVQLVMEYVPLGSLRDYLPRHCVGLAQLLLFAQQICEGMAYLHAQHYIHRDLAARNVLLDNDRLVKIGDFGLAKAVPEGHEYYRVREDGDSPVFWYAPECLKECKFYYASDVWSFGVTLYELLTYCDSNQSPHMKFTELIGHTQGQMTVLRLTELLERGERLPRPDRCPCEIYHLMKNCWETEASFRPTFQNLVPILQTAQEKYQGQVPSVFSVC
Description: • 1. L929 ISRE cells (5000 cells/well) were seeded on 96-well plates and incubated overnight at room temperature; • 2. The cells were pretreated by adding different concentrations (10 nM, 50 nM, 100 nM, 200 nM or 1000 nM) of the test compounds for 2 hours; • 3. Added IFN-α (100 ng/mL) to stimulate cells for 6 hours; • 4. Removed the upper medium, add PBS (100 μL) and washed, then removed PBS; • 5. Added PLB lysis solution (50 μL) to each well, shook the well for 15 minutes; • 6. Transferred PLB lysis solution (30 μL) to a new 96-well whiteboard, added LAR II reagent (LAR II), then quickly read the […]; • 7. Added Stop & Glo reagent (30 μL), then read the 450 nm OD value using the plate washer. • 8. The final results in Table 3 were the OD value in step 6/OD value in step 7.

[2] = biological target: TYK2 JH2 (Homo sapiens (Human), UniProt P29597); assay: Competitive binding assay (kinase-tagged phage, qPCR), TYK2 JH2
TYK2 JH2, sequence (P29597 589-875): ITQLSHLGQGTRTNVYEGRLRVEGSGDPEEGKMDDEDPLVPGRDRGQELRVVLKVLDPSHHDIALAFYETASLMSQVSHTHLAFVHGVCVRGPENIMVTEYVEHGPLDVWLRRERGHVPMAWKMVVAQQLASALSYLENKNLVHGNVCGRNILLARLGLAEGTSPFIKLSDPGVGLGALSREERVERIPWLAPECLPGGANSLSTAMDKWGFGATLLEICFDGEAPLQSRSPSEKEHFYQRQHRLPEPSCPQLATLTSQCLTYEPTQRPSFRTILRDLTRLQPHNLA
Description: For most assays, kinase-tagged T7 phage strains were prepared in an E. coli host derived from the BL21 strain. E. coli were grown to log-phase and infected with T7 phage and incubated with shaking at 32° C. until lysis. The lysates were centrifuged and filtered to remove cell debris. The remaining kinases were produced in HEK-293 cells and subsequently tagged with DNA for qPCR detection. Streptavidin coated magnetic beads were treated with biotinylated small molecule ligands for 30 minutes at room temperature to generate affinity resins for kinase assays. The liganded beads were blocked with excess biotin and washed with blocking buffer (SeaBlock (Pierce), 1% BSA, 0.05% Tween 20, 1 mM DTT) to remove unbound ligand and to reduce non-specific binding. […] Test compounds were prepared as 111X stocks in 100% DMSO. Dissociation constants (Kds) were determined using an 11-point 3-fold compound dilution series with three DMSO control points. All compounds for Kd measurements are distributed by acoustic transfer (non-contact dispensing) in 100% DMSO. The compounds were then diluted directly into the assays such that the final concentration of DMSO was 0.9%. All reactions performed in polypropylene 384-well plate. Each was a final volume of 0.02 ml. The assay plates were incubated at room temperature with shaking for 1 hour and the affinity beads were washed with wash buffer (1×PBS, 0.05% Tween 20). The beads were then re-suspended in elution buffer (1×PBS, 0.05% Tween 20, 0.5 μM nonbiotinylated affinity ligand) and incubated at room temperature with shaking for 30 minutes. The kinase concentration in the eluates was measured by qPCR.
An 11-point 3-fold serial dilution of each test compound was prepared in 100% DMSO at 100× final test concentration and subsequently diluted to 1× in the assay (final DMSO concentration=1%). Most Kds were determined using a compound top concentration=30,000 nM. If the initial Kd determined was <0.5 nM (the lowest concentration tested), the measurement was repeated with a serial dilution starting at a lower top concentration.
Binding constants (Kds) were calculated with a standard dose-response curve using the Hill equation: […]
The Hill Slope was set to −1.
Curves were fitted using a non-linear least square fit with the Levenberg-Marquardt algorithm.

SMILES	inhibition at 1 µM [1] [%]	also measured
CCC(=O)c1cnc(NC(=O)C2CC2)cc1Nc1cccc(-c2nc(P(C)(C)=O)cs2)c1OC [Compound B6]	36	
CCC(=O)c1cnc(NC(=O)C2CC2)cc1Nc1cccc(-c2cc(P(C)(C)=O)n(C)n2)c1 [Compound B15]	45	
CCC(=O)c1cnc(NC(=O)C2CC2)cc1Nc1cccc(-c2cc(P(C)(C)=O)n(C3CC3)n2)c1OC [Compound B16]	55	inhibition at 0.01 µM [1]: 35%; inhibition at 0.1 µM [1]: 38%
CCC(=O)c1nnc(NC(=O)C2CC2)cc1Nc1cccc(-c2cc(P(C)(C)=O)n(C)n2)c1OC [Compound B18, N-(5-((3-(5-(dimethylphosphoryl)-1-methyl-1H-pyrazol-3-yl)-2-methoxyphenyl)amino)-6-propionylpyridazin-3-yl)cyclopropanecarboxamide]	42	
CCC(=O)c1cnc(NC(=O)C2CC2)cc1Nc1cccc(-c2cc(P(C)(C)=O)n(C)n2)c1C#N [Compound B20]	20	inhibition at 0.01 µM [1]: 7%; inhibition at 0.1 µM [1]: 8%
CCC(=O)c1cnc(NC(=O)C2CC2)cc1Nc1cccc(-c2cc(P(C)(C)=O)cs2)c1OC [Compound B27]	38	
CCC(=O)c1cnc(NC(=O)C2CC2)cc1Nc1nccc(-c2cc(P(=O)(CC)CC)n(C)n2)c1OC [Compound B29]	93	Kd [2]: 0.01 nM
CCC(=O)c1cnc(NC(=O)C2CC2)cc1Nc1cccc(-c2cc(P3(=O)CCCC3)n(C)n2)c1OC [Compound B30]	75	
CCC(=O)c1cnc(NC(=O)C2CC2)cc1Nc1cc(F)cc(-c2cc(P(=O)(CC)CC)n(C)n2)c1OC [Compound B32]	88	Kd [2]: 0.025 nM
[2H]C([2H])([2H])n1nc(-c2cccc(Nc3cc(NC(=O)C4CC4)ncc3C(=O)CC)c2OC)cc1P(=O)(CC)CC [Compound B34]	87	Kd [2]: 0.044 nM
CCC(=O)c1cnc(NC(=O)C2CC2)cc1Nc1nccc(-c2ncc(P(=O)(CC)CC)cn2)c1OC [Compound B36]	75	
CNC(=O)c1nnc(NC(=O)C2CC2)cc1Nc1cccc(-c2cc(P(C)(C)=O)n(C)n2)c1OC [Compound B39]	80	Kd [2]: 0.0064 nM; inhibition at 0.1 µM [1]: 34%
[2H]C([2H])([2H])NC(=O)c1nnc(NC(=O)C2CC2)cc1Nc1cccc(-c2cc(P(C)(C)=O)n(C)n2)c1OC [Compound B42]	65	
CCP(=O)(CC)c1cc(-c2cccc(Nc3cc(NC(=O)C4CC4)nnc3C(=O)NC)c2OC)nn1C [Compound B43]	84	

Second part, led by results:

inhibition at 1 µM [1] [%]	SMILES	also measured
0	CCC(=O)c1cnc(NC(=O)C2CC2)cc1Nc1cccc(-c2nc(P(C)(C)=O)ns2)c1OC [Compound B1, N-(4-((3-(3-(dimethylphosphoryl)-1,2,4-thiadiazol-5-yl)-2-methoxyphenyl)amino)-5-propionylpyridin-2-yl)cyclopropanecarboxamide]	inhibition at 0.01 µM [1]: 0%; inhibition at 0.1 µM [1]: 0%
46	CCC(=O)c1cnc(NC(=O)C2CC2)cc1Nc1cccc(-c2cccc(P(C)(C)=O)c2)c1OC [Compound B7]	
33	CCC(=O)c1cnc(NC(=O)C2CC2)cc1Nc1cccc(-c2ccc(P(C)(C)=O)nn2)c1OC [Compound B8]	
40	CCC(=O)c1cnc(NC(=O)C2CC2)cc1Nc1cccc(-c2cc(P(C)(C)=O)nn2C)c1OC [Compound B9]	
50	CCC(=O)c1cnc(NC(=O)C2CC2)cc1Nc1cccc(-c2ccccc2P(C)(C)=O)c1OC [Compound B10]	
0	CCC(=O)c1cnc(NC(=O)C2CC2)cc1Nc1cccc(-c2cc(P(C)(C)=O)n(C)n2)c1F [Compound B12]	
27	CCC(=O)c1cnc(NC(=O)C2CC2)cc1Nc1cccc(-c2cc(P(C)(C)=O)n(C)n2)c1C [Compound B14]	
67	CCC(=O)c1cnc(NC(=O)C2CC2)cc1Nc1cc(F)cc(-c2cc(P(C)(C)=O)n(C)n2)c1OC [Compound B17]	inhibition at 0.01 µM [1]: 25%; inhibition at 0.1 µM [1]: 45%
88	CCC(=O)c1cnc(NC(=O)C2CC2)cc1Nc1nccc(-c2cc(P(C)(C)=O)n(C)n2)c1OC [Compound B19, N-(4-((4-(5-(dimethylphosphoryl)-1-methyl-1H-pyrazol-3-yl)-3-methoxypyridin-2-yl)amino)-5-propionylpyridin-2-yl)cyclopropanecarboxamide]	Kd [2]: 0.075 nM; inhibition at 0.01 µM [1]: 41%; inhibition at 0.1 µM [1]: 74%
49	CCC(=O)c1cnc(NC(=O)C2CC2)cc1Nc1cccc(-c2ccc(P(C)(C)=O)nc2)c1OC [Compound B21]	inhibition at 0.1 µM [1]: 6%
46	CCC(=O)c1cnc(NC(=O)C2CC2)cc1Nc1cc(F)cc(-c2ncc(P(C)(C)=O)cn2)c1OC [Compound B23]	inhibition at 0.1 µM [1]: 8%
93	CCC(=O)c1cnc(NC(=O)C2CC2)cc1Nc1cccc(-c2cc(P(=O)(CC)CC)n(C)n2)c1OC [Compound B24]	Kd [2]: 0.03 nM; inhibition at 0.1 µM [1]: 31%
13	CCC(=O)c1nnc(NC(=O)C2CC2)cc1Nc1cc(F)cc(-c2cc(P(C)(C)=O)n(C)n2)c1OC [Compound B25]	
35	CCC(=O)c1nnc(NC(=O)C2CC2)cc1Nc1cccc(-c2ccc(P(C)(C)=O)cn2)c1OC [Compound B28]	
26	CCC(=O)c1nnc(NC(=O)C2CC2)cc1Nc1cccc(-c2cc(P(C)(C)=O)n(CC)n2)c1OC [Compound B31]	
86	[2H]C([2H])([2H])n1nc(-c2ccnc(Nc3cc(NC(=O)C4CC4)ncc3C(=O)CC)c2OC)cc1P(=O)(CC)CC [Compound B33]	Kd [2]: 0.056 nM
60	[2H]C([2H])([2H])n1nc(-c2ccnc(Nc3cc(NC(=O)C4CC4)ncc3C(=O)CC)c2OC)cc1P(C)(C)=O [Compound B35]	Kd [2]: 0.025 nM
58	CNC(=O)c1nnc(NC(=O)C2CC2)cc1Nc1cccc(-c2ncc(P(C)(C)=O)cn2)c1OC [Compound B40]	inhibition at 0.1 µM [1]: 33%
81	CNC(=O)c1nnc(NC(=O)C2CC2)cc1Nc1cccc(-c2cc(P(=O)(C3CC3)C3CC3)n(C)n2)c1OC [Compound B44]	
95	[2H]C([2H])([2H])NC(=O)c1nnc(NC(=O)C2CC2)cc1Nc1cccc(-c2cc(P(=O)(CC)CC)n(C)n2)c1OC [Compound B45]	inhibition at 0.05 µM [1]: 44%; inhibition at 0.2 µM [1]: 83%
96	CCC(=O)c1cnc(NC(=O)C2CC2)cc1Nc1ncnc(-c2cc(P(=O)(C3CC3)C3CC3)n(C)n2)c1OC [Compound B46, N-(4-((6-(5-(dicyclopropylphosphoryl)-1-methyl-1H-pyrazol-3-yl)-5-methoxypyrimidin-4-yl)amino)-5-propionylpyridin-2-yl)cyclopropanecarboxamide]	inhibition at 0.05 µM [1]: 70%; inhibition at 0.2 µM [1]: 88%

Source: patent US20240343747A1, “Heteroaryl compounds as inhibitors of TYK2, composition and application thereof” (Accro Bioscience (HK) Limited, priority 2021, published 2024)
